Reference: patent US20190203253A1, “METHODS OF IDENTIFYING AND TREATING CANCER PATIENTS WITH AN EPHB6 DEFICIENCY” (University of Saskatchewan, priority 2016, published 2019)
Entries after “also recorded” stand apart in the source; their conditions may differ.

What was measured:
[1] = test system: MDA-pc3 and MDA-B6 cells (MDA-MB-231); assay: Drug sensitivity assay (resazurin), SRC inhibitors, MDA-MB-231-derived cells; format: cell-based, human; conditions: MDA-pc3 vs MDA-B6, increasing concentrations, 72 h, resazurin (FIG. 4A, 4B)
Procedure: FIG. 4. […] C. […] All experiments were performed at least three times.

[2] = test system: MDA-pc3 and MDA-B6 TNBC tumors; assay: Tumor xenograft study, tumor growth; format: in vivo, NOD-SCID mice; conditions: 5 mg/kg orally twice a day, MDA-pc3 vs MDA-B6 xenografts (FIG. 7A)
Procedure: (§1) FIG. 7. Analysis of the SL interaction between EPHB6 and SRC in TNBC cells and murine xenografts. A. MDA-pc3 and MDA-B6 cells were injected into the mammary fat pad region of 4-6 weeks old NOD-SCID mice (1×10^6 cells per mouse). Mice with detectable tumors were treated twice per day with 5 mg/kg KX2-391 in DMSO/water solvent or solvent alone by oral feeding (at least 6 animals per each experimental condition). Tumor size was measured every 3 days and tumor volume was calculated with the equation: A/2*B^2, where A was long and B was short diameter of the tumor. The reduction in tumor growth in KX2-391-treated mice is presented as a percentage relative to matching solvent controls. The graph summarizes two independent experiments. […] Four representative fields (at 3, 6, 9, and 12 o'clock) per each stained tumor section (one for each extracted tumor) were imaged at 100× magnification and the blood vessel density per each field was analyzed with the Image-Pro Premier software. […]
Breeder pairs of NOD SCID gamma mice were purchased from The Jackson Laboratory and a colony was established at the Laboratory Animal Services Unit, University of Saskatchewan. […] Digital caliper measurements were taken every 3 days and tumor volume was calculated by the formula A/2*B^2 (where A and B were the long and short diameters of the tumor respectively). […]

[3] = test system: CD34-stained blood vessels in MDA-B6 and MDA-pc3 tumors; assay: Anti-CD34 immunohistochemistry of xenograft tumors (blood vessel density); format: in vivo, NOD-SCID mice; conditions: KX2-391-treated MDA-B6 and MDA-pc3 tumors (FIG. 7B)
Procedure: as §1, with “experiments. Day 0 indicates the beginning of treatment with KX2-391 or matching solvent control.” for “experiments.”
For the immunohistochemical staining, tumors were dissected and fixed in 10% neutral- buffered formalin for 24-48 h. […] In each stained tumor section, 12, 3, 6 and 9 o'clock fields were imaged at 100× magnification and the density of stained blood vessels per field was quantified using the Image-Pro Premier software.

Compound: O=C(Cc1ccc(-c2ccc(OCCN3CCOCC3)cc2)cn1)NCc1ccccc1 [KX2-391]
- cell suppression relative to DMSO control, EPHB6-deficient vs EPHB6-expressing cells [1]: significantly stronger suppression of EPHB6-deficent cells
- suppression of tumor growth, EPHB6-deficient vs EPHB6-expressing tumors [2]: more efficiently suppresses growth of EPHB6-deficient TNBC tumors; also recorded: significantly more effective in suppressing EPHB6-deficient TNBC tumors
- neovascularization (CD34 staining) of treated EPHB6-positive vs EPHB6-negative tumors [3]: has not shown any differences in neovascularization
